# According to article PMC5218480 (PLoS ONE, 2017):
# Tested on: MV-4-11 cells
# Assay: Gene expression microarray analysis (Affymetrix PrimeView) and GSEA
# Format: cell-based, human
# Set-up: RFU PODN (11730768_x_at) / Fold change /veh PODN (11730768_x_at) / RFU LINC00158 (11744669_a_at) / Fold change /veh LINC00158 (11744669_a_at) / RFU DUSP10 (11751237_a_at) / Fold change /veh DUSP10 (11751237_a_at) / RFU ID3 (11757404_x_at) / Fold change /veh ID3 (11757404_x_at) / RFU PLEKHG5 (11737974_s_at) / Fold change /veh PLEKHG5 (11737974_s_at) / RFU LRRC4B (11730491_at) / Fold change /veh LRRC4B (11730491_at) / RFU GIMAP4 (11747438_a_at) / Fold change /veh GIMAP4 (11747438_a_at) / RFU KRT8 (11758183_x_at) / Fold change /veh KRT8 (11758183_x_at) / RFU CNN1 (11734310_a_at) / Fold change /veh CNN1 (11734310_a_at) / RFU VPS37D (11726825_at) / Fold change /veh VPS37D (11726825_at) / RFU C10orf10 (11716522_x_at) / Fold change /veh C10orf10 (11716522_x_at) / RFU KIR2DL2 /// KIR2DL4 /// KIR2DL5A /// KIR2DL5B /// KIR2DS1 /// KIR2DS2 /// KIR2DS3 /// KIR2DS4 /// KIR3DL3 /// KIR3DL3 /// KIR3DS1 (11738374_at) / Fold change /veh KIR2DL2 /// KIR2DL4 /// KIR2DL5A /// KIR2DL5B /// KIR2DS1 /// KIR2DS2 /// KIR2DS3 /// KIR2DS4 /// KIR3DL3 /// KIR3DL3 /// KIR3DS1 (11738374_at) / RFU C1QL1 (11718748_at) / Fold change /veh C1QL1 (11718748_at) / RFU TMPRSS4 (11747572_a_at) / Fold change /veh TMPRSS4 (11747572_a_at) / RFU HAMP (11756126_x_at) / Fold change /veh HAMP (11756126_x_at) / RFU RNFT2 (11725882_a_at) / Fold change /veh RNFT2 (11725882_a_at) / RFU NR4A2 (11747474_a_at) / Fold change /veh NR4A2 (11747474_a_at) / RFU ABCC12 (11746883_a_at) / Fold change /veh ABCC12 (11746883_a_at) / RFU TMEM136 (11760407_x_at) / Fold change /veh TMEM136 (11760407_x_at) / RFU CLDN22 /// WWC2 (11732394_at) / Fold change /veh CLDN22 /// WWC2 (11732394_at) / RFU HLA-DPB1 (11760878_x_at) / Fold change /veh HLA-DPB1 (11760878_x_at) / RFU SPINT1 (11716480_a_at) / Fold change /veh SPINT1 (11716480_a_at) / RFU GAP43 (11754022_s_at) / Fold change /veh GAP43 (11754022_s_at) / RFU A4GNT (11735810_at) / Fold change /veh A4GNT (11735810_at) / RFU PRB3 (11715151_x_at) / Fold change /veh PRB3 (11715151_x_at) / RFU TUBB4B (11761932_at) / Fold change /veh TUBB4B (11761932_at) / RFU CAPN14 (11732068_a_at) / Fold change /veh CAPN14 (11732068_a_at) / RFU TMCC2 (11721928_a_at) / Fold change /veh TMCC2 (11721928_a_at) / RFU IRGQ (11745062_a_at) / Fold change /veh IRGQ (11745062_a_at) / RFU FAM174B (11720279_a_at) / Fold change /veh FAM174B (11720279_a_at) / RFU TMPRSS4 (11748680_a_at) / Fold change /veh TMPRSS4 (11748680_a_at) / RFU FAM212B (11763350_a_at) / Fold change /veh FAM212B (11763350_a_at) / RFU PLEKHG5 (11743358_a_at) / Fold change /veh PLEKHG5 (11743358_a_at) / RFU ZSCAN30 (11745921_a_at) / Fold change /veh ZSCAN30 (11745921_a_at) / RFU CMKLR1 (11741424_a_at) / Fold change /veh CMKLR1 (11741424_a_at) / RFU LOC101060620 /// MAPK8IP1 (11723275_at) / Fold change /veh LOC101060620 /// MAPK8IP1 (11723275_at) / RFU SPTSSB (11747773_x_at) / Fold change /veh SPTSSB (11747773_x_at) / RFU PRSS12 (11739890_at) / Fold change /veh PRSS12 (11739890_at) / RFU BIN1 (11741810_x_at) / Fold change /veh BIN1 (11741810_x_at) / RFU WNT11 (11732464_a_at) / Fold change /veh WNT11 (11732464_a_at) / RFU C10orf10 (11716521_a_at) / Fold change /veh C10orf10 (11716521_a_at) / RFU C5orf56 (11738089_at) / Fold change /veh C5orf56 (11738089_at) / RFU CYB561 (11721691_x_at) / Fold change /veh CYB561 (11721691_x_at) / RFU ANKRD19P (11752326_a_at) / Fold change /veh ANKRD19P (11752326_a_at) / RFU OR2T12 /// OR2T33 /// OR2T8 (11738714_s_at) / Fold change /veh OR2T12 /// OR2T33 /// OR2T8 (11738714_s_at) / RFU VCAN (11748164_a_at) / Fold change /veh VCAN (11748164_a_at) / RFU JSRP1 (11732532_at) / Fold change /veh JSRP1 (11732532_at) / RFU KRTAP10-11 (11738290_x_at) / Fold change /veh KRTAP10-11 (11738290_x_at) / RFU MYO3A (11730013_a_at) / Fold change /veh MYO3A (11730013_a_at) / RFU EBF3 (11725865_a_at) / Fold change /veh EBF3 (11725865_a_at) / RFU CAMK2N1 (11719241_x_at) / Fold change /veh CAMK2N1 (11719241_x_at) / RFU C5orf56 (11738088_a_at) / Fold change /veh C5orf56 (11738088_a_at) / RFU OLFML3 (11715873_a_at) / Fold change /veh OLFML3 (11715873_a_at) / RFU LOC100653217 /// NTM (11731650_a_at) / Fold change /veh LOC100653217 /// NTM (11731650_a_at) / RFU MAPK11 (11762145_a_at) / Fold change /veh MAPK11 (11762145_a_at) / RFU FIZ1 (11724087_x_at) / Fold change /veh FIZ1 (11724087_x_at) / RFU OASL (11726364_x_at) / Fold change /veh OASL (11726364_x_at) / RFU SOX15 (11748057_x_at) / Fold change /veh SOX15 (11748057_x_at) / RFU CD79A (11719716_a_at) / Fold change /veh CD79A (11719716_a_at) / RFU HIST1H1D (11736915_at) / Fold change /veh HIST1H1D (11736915_at) / RFU CASKIN2 (11723855_a_at) / Fold change /veh CASKIN2 (11723855_a_at) / RFU LOC730098 (11760151_x_at) / Fold change /veh LOC730098 (11760151_x_at) / RFU OR4N2 (11742367_at) / Fold change /veh OR4N2 (11742367_at) / RFU PRRT2 (11749266_a_at) / Fold change /veh PRRT2 (11749266_a_at) / RFU SNX32 (11753110_a_at) / Fold change /veh SNX32 (11753110_a_at) / RFU CDHR5 (11726645_a_at) / Fold change /veh CDHR5 (11726645_a_at) / RFU RCAN1 (11760418_a_at) / Fold change /veh RCAN1 (11760418_a_at) / RFU FAM167A (11723789_a_at) / Fold change /veh FAM167A (11723789_a_at) / RFU FAM26E (11764081_at) / Fold change /veh FAM26E (11764081_at) / RFU ISYNA1 (11749810_s_at) / Fold change /veh ISYNA1 (11749810_s_at) / RFU ACY1 (11761880_at) / Fold change /veh ACY1 (11761880_at) / RFU 11764098_at / Fold change /veh 11764098_at / RFU SAMD14 (11745864_x_at) / Fold change /veh SAMD14 (11745864_x_at) / RFU NPB (11741838_a_at) / Fold change /veh NPB (11741838_a_at) / RFU TMPRSS6 (11731388_a_at) / Fold change /veh TMPRSS6 (11731388_a_at) / RFU KRTAP10-2 (11738614_at) / Fold change /veh KRTAP10-2 (11738614_at) / RFU ARHGAP8 /// PRR5-ARHGAP8 (11727945_x_at) / Fold change /veh ARHGAP8 /// PRR5-ARHGAP8 (11727945_x_at) / RFU KRTAP5-7 /// NADSYN1 (11734609_at) / Fold change /veh KRTAP5-7 /// NADSYN1 (11734609_at) / RFU RASL12 (11751679_a_at) / Fold change /veh RASL12 (11751679_a_at) / RFU CDKN2B (11736163_a_at) / Fold change /veh CDKN2B (11736163_a_at) / RFU PRF1 (11729649_at) / Fold change /veh PRF1 (11729649_at) / RFU, ZNF638 /// ZNF638-IT1 / Fold change vs veh, ZNF638 /// ZNF638-IT1 / RFU, PANK3 / Fold change vs veh, PANK3 / RFU, SH3YL1 / Fold change vs veh, SH3YL1 / RFU, ZEB2 / Fold change vs veh, ZEB2 / RFU, NRIP1 / Fold change vs veh, NRIP1 / RFU, PTTG1IP / Fold change vs veh, PTTG1IP / RFU, CAPN2 / Fold change vs veh, CAPN2 / RFU, MED14 / Fold change vs veh, MED14 / RFU, SNORA58 / Fold change vs veh, SNORA58 / RFU, C1orf63 / Fold change vs veh, C1orf63 / RFU, LRRFIP1 / Fold change vs veh, LRRFIP1 / RFU, NDUFAF7 / Fold change vs veh, NDUFAF7 / RFU, SLC12A2 / Fold change vs veh, SLC12A2 / RFU, IBTK / Fold change vs veh, IBTK / RFU, ESF1 / Fold change vs veh, ESF1 / Fold change vs veh, TMEM50B / RFU, TAOK1 / Fold change vs veh, TAOK1 / RFU, ACBD3 / Fold change vs veh, ACBD3 / RFU, TMA16 / Fold change vs veh, TMA16 / RFU, RWDD3 / Fold change vs veh, RWDD3 / RFU, BCAT1 / Fold change vs veh, BCAT1 / RFU, EDEM3 / Fold change vs veh, EDEM3 / RFU, TMEM33 / Fold change vs veh, TMEM33 / RFU, WDR75 / Fold change vs veh, WDR75 / RFU, AHCTF1 / Fold change vs veh, AHCTF1 / RFU, TFRC / Fold change vs veh, TFRC / RFU, ZDHHC17 / Fold change vs veh, ZDHHC17 / RFU, NOM1 / Fold change vs veh, NOM1 / RFU, ARL8B / Fold change vs veh, ARL8B / RFU, ZBTB11 / Fold change vs veh, ZBTB11 / RFU, TAMM41 / Fold change vs veh, TAMM41 / RFU, KIAA1704 /// LOC100996395 / Fold change vs veh, KIAA1704 /// LOC100996395 / RFU, ING1 / Fold change vs veh, ING1 / RFU, TRMT61B / Fold change vs veh, TRMT61B / RFU, FUBP3 / Fold change vs veh, FUBP3 / RFU, TP53 / Fold change vs veh, TP53 / RFU, TNKS2 / Fold change vs veh, TNKS2 / RFU, ZFP14 / Fold change vs veh, ZFP14 / RFU, ACTR2 / Fold change vs veh, ACTR2 / RFU, PPP3R1 / Fold change vs veh, PPP3R1 / RFU, PIK3R1 / Fold change vs veh, PIK3R1 / RFU, HNRNPA1 / Fold change vs veh, HNRNPA1 / RFU, RNF170 / Fold change vs veh, RNF170 / RFU, ZNF28 / Fold change vs veh, ZNF28 / RFU, RNGTT / Fold change vs veh, RNGTT / RFU, OGT / Fold change vs veh, OGT / RFU, BRD1 / Fold change vs veh, BRD1 / RFU, MARS / Fold change vs veh, MARS / RFU, ZNF655 / Fold change vs veh, ZNF655 / RFU, FAHD1 / Fold change vs veh, FAHD1 / RFU, BDP1 / Fold change vs veh, BDP1 / RFU, LRRCC1 / Fold change vs veh, LRRCC1 / RFU, ARID1A / Fold change vs veh, ARID1A / RFU, ZNF146 / Fold change vs veh, ZNF146 / RFU, ZNF330 / Fold change vs veh, ZNF330 / RFU, GPN3 / Fold change vs veh, GPN3 / RFU, C9orf123 / Fold change vs veh, C9orf123 / RFU, N4BP2L2 / Fold change vs veh, N4BP2L2 / RFU, ARFIP1 / Fold change vs veh, ARFIP1 / RFU, FAM179B / Fold change vs veh, FAM179B / RFU, BCL10 / Fold change vs veh, BCL10 / RFU, UHRF1BP1L / Fold change vs veh, UHRF1BP1L / RFU, BET1 / Fold change vs veh, BET1 / RFU, CNOT2 / Fold change vs veh, CNOT2 / RFU, ZNF268 / Fold change vs veh, ZNF268 / Fold change vs veh, ZNF507 / RFU, DGCR2 / Fold change vs veh, DGCR2 / RFU, WDSUB1 / Fold change vs veh, WDSUB1 / Fold change vs veh, HSP90B1 /// MIR3652 / RFU, ADSS / Fold change vs veh, ADSS / RFU, GK / Fold change vs veh, GK / RFU, ZNF148 / Fold change vs veh, ZNF148 / RFU, TAF9 / Fold change vs veh, TAF9 / RFU, SLC1A5 / Fold change vs veh, SLC1A5 / RFU, SLMO2 / Fold change vs veh, SLMO2 / RFU, ABCC4 / Fold change vs veh, ABCC4 / RFU, LOC101060439 /// RAP1B / Fold change vs veh, LOC101060439 /// RAP1B / RFU, RFX7 / Fold change vs veh, RFX7 / RFU, GTPBP10 / Fold change vs veh, GTPBP10 / RFU, CNEP1R1 / Fold change vs veh, CNEP1R1 / RFU, BIVM-ERCC5 /// ERCC5 / Fold change vs veh, BIVM-ERCC5 /// ERCC5 / RFU, ILF3 / Fold change vs veh, ILF3 / RFU 11762660_at / Fold change /veh 11762660_at / RFU VCAN (11757783_s_at) / Fold change /veh VCAN (11757783_s_at) / RFU DDX43 (11728927_at) / Fold change /veh DDX43 (11728927_at) / RFU KRT8 (11758188_x_at) / Fold change /veh KRT8 (11758188_x_at) / RFU NKD1 (11759106_at) / Fold change /veh NKD1 (11759106_at) / RFU SRD5A1 (11742802_a_at) / Fold change /veh SRD5A1 (11742802_a_at) / RFU TPSAB1 /// TPSB2 (11721975_s_at) / Fold change /veh TPSAB1 /// TPSB2 (11721975_s_at) / RFU GSTM3 (11746129_a_at) / Fold change /veh GSTM3 (11746129_a_at) / RFU IL23R (11737362_x_at) / Fold change /veh IL23R (11737362_x_at) / RFU TMEM51 (11727254_a_at) / Fold change /veh TMEM51 (11727254_a_at) / RFU PIWIL2 (11732686_x_at) / Fold change /veh PIWIL2 (11732686_x_at) / RFU ORM1 (11744905_x_at) / Fold change /veh ORM1 (11744905_x_at) / RFU CCDC152 (11743942_at) / Fold change /veh CCDC152 (11743942_at) / RFU ECM1 (11717891_a_at) / Fold change /veh ECM1 (11717891_a_at) / RFU IL23R (11748794_a_at) / Fold change /veh IL23R (11748794_a_at) / RFU TNFAIP8L3 (11732012_x_at) / Fold change /veh TNFAIP8L3 (11732012_x_at) / RFU MBOAT4 (11741988_at) / Fold change /veh MBOAT4 (11741988_at) / RFU 11764193_at / Fold change /veh 11764193_at / RFU TMEM53 (11763286_at) / Fold change /veh TMEM53 (11763286_at) / RFU MAGEB2 (11727129_at) / Fold change /veh MAGEB2 (11727129_at) / RFU TMEM200A (11744735_a_at) / Fold change /veh TMEM200A (11744735_a_at) / RFU CCDC152 (11751479_a_at) / Fold change /veh CCDC152 (11751479_a_at) / RFU FAM211A (11726209_a_at) / Fold change /veh FAM211A (11726209_a_at) / RFU RGS16 (11746705_a_at) / Fold change /veh RGS16 (11746705_a_at) / RFU VCAN (11755009_s_at) / Fold change /veh VCAN (11755009_s_at) / RFU RHOB (11743442_s_at) / Fold change /veh RHOB (11743442_s_at) / RFU RGS16 (11720943_a_at) / Fold change /veh RGS16 (11720943_a_at) / RFU RGS16 (11720944_at) / Fold change /veh RGS16 (11720944_at) / RFU, VPS4B / Fold change vs veh, VPS4B / RFU, CREB1 / Fold change vs veh, CREB1 / RFU, DNAJC13 / Fold change vs veh, DNAJC13 / RFU, GNAQ / Fold change vs veh, GNAQ / RFU, CDK5R1 / Fold change vs veh, CDK5R1 / RFU, ZRANB3 / Fold change vs veh, ZRANB3 / RFU, CUL4A / Fold change vs veh, CUL4A / RFU, CCNY / Fold change vs veh, CCNY / RFU, UFL1 / Fold change vs veh, UFL1 / RFU, COG3 / Fold change vs veh, COG3 / RFU, DIAPH2 / Fold change vs veh, DIAPH2 / RFU, SKA2 / Fold change vs veh, SKA2 / RFU, AFF3 / Fold change vs veh, AFF3 / RFU, LMF1 / Fold change vs veh, LMF1 / RFU, IPO11 / Fold change vs veh, IPO11 / RFU, DFFB / Fold change vs veh, DFFB / RFU, FOXP1 / Fold change vs veh, FOXP1 / RFU, CARD8 / Fold change vs veh, CARD8 / RFU, STRN3 / Fold change vs veh, STRN3 / RFU, ADK / Fold change vs veh, ADK / RFU, RASSF2 / Fold change vs veh, RASSF2 / RFU, WIPF1 / Fold change vs veh, WIPF1 / RFU, LARP1B / Fold change vs veh, LARP1B / RFU, RASA1 / Fold change vs veh, RASA1 / RFU, RB1 / Fold change vs veh, RB1 / RFU, PPFIA1 / Fold change vs veh, PPFIA1 / RFU, MAT2A / Fold change vs veh, MAT2A / RFU, CCT5 / Fold change vs veh, CCT5 / RFU, WDR92 / Fold change vs veh, WDR92 / RFU, CUX1 / Fold change vs veh, CUX1 / RFU, TTC7A / Fold change vs veh, TTC7A / RFU, TMEM135 / Fold change vs veh, TMEM135 / RFU, DEPTOR / Fold change vs veh, DEPTOR / RFU, CPM / Fold change vs veh, CPM / RFU, DNAJB6 / Fold change vs veh, DNAJB6 / RFU, CACNA2D3 / Fold change vs veh, CACNA2D3 / RFU, DTX4 / Fold change vs veh, DTX4 / RFU, TFCP2 / Fold change vs veh, TFCP2 / RFU, GMCL1 /// GMCL1P1 / Fold change vs veh, GMCL1 /// GMCL1P1 / RFU, AEBP2 / Fold change vs veh, AEBP2 / RFU, SNHG1 /// SNORD22 /// SNORD25 /// SNORD26 /// SNORD27 /// SNORD28 /// SNORD29 /// SNORD31 / Fold change vs veh, SNHG1 /// SNORD22 /// SNORD25 /// SNORD26 /// SNORD27 /// SNORD28 /// SNORD29 /// SNORD31 / Fold change (Aza/veh), C12orf56 (ProbeSet 11735607_a_at) / Fold change (ACY-1035/veh), C12orf56 (ProbeSet 11735607_a_at) / Fold change (Aza/veh), FGFR1OP (ProbeSet 11751329_s_at) / Fold change (ACY-1035/veh), FGFR1OP (ProbeSet 11751329_s_at) / Fold change (Aza/veh), VPS36 (ProbeSet 11739960_a_at) / Fold change (ACY-1035/veh), VPS36 (ProbeSet 11739960_a_at) / RFU SYPL1 (11715823_x_at) / Fold change /veh SYPL1 (11715823_x_at) / RFU IGFBP7 (11715501_s_at) / Fold change /veh IGFBP7 (11715501_s_at) / RFU REEP3 (11722064_at) / Fold change /veh REEP3 (11722064_at) / RFU IGLL1 (11728026_x_at) / Fold change /veh IGLL1 (11728026_x_at): dose or concentration left out as unconfirmed
# Conditions: ProbeSet 11763895_x_at; LIST B
smiles,measurement,value
Nc1ccc(-c2cccs2)cc1NC(=O)c1ccc2c(c1)cc(C1CC1)n2CCN1CCOCC1 [ACY-1035],"Fold change vs veh, SNORA58",0.89
